Patent US9340577B2, “HLA binding motifs and peptides and their uses” (priority 1992, dated 2016)
Read-outs that look alike come from different tables or passages of the source. No end group written: not given here.

Tests used:
Experiment in all cases: biochemical
[1] = biological target: DR1 (DRB1*0101) (Homo sapiens, UniProt P01903+P01911, A100R/D57E/F55L/F60I/F76Y/I96L/L162R/M171V/P40L/Q125E/R42F/V115G/Y59C); assay type: binding
[2] = biological target: DRB1*1302 (Homo sapiens, UniProt P01903+P01911, A100E/A169T/K41T/L162R/M171V/P40S/Q125H/Q178H/Q39Y/Q99D/R42S/S66N/T262R/V115G/W38E/Y61H); assay type: binding
Chain of DRB1*1302 (P01903 26-254 limits assumed, other chains not shown): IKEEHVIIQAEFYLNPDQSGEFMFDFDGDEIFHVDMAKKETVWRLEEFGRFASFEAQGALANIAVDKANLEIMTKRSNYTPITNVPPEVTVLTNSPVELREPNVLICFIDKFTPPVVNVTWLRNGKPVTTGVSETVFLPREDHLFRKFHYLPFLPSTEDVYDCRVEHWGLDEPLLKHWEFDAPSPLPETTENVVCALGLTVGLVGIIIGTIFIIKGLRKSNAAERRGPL

[3] = biological target: DRB1*0802 (Homo sapiens, UniProt P01903+P01911, A100R/A103L/A169T/F76Y/H45Y/I96F/K41T/L162R/M171V/P40S/Q125H/Q178H/Q39Y/Q99D/R218S/R42G/S66Y/V115G/W38E); assay type: binding
[4] = biological target: DRB1*1501 (Homo sapiens, UniProt P01903+P01911); assay type: binding
[5] = biological target: DRB1*0901 (Homo sapiens, UniProt P01903+P01911, A100R/A103E/D57H/D86V/F55Y/F60I/F76Y/I96F/K127E/L162R/M171V/P40D/Q125H/Q99R/R33Q/R42F/S133A/S66N/T210M/V115G/W38K/Y107V/Y59G/Y89S); assay type: binding
[6] = biological target: DRB4*0101 (Homo sapiens, UniProt P01903+P13762, G164S); assay type: binding
[7] = biological target: DRB1*0405 (Homo sapiens, UniProt P01903+P01911, A100R/A169T/D86S/F76Y/I96L/K127E/L162R/M171V/N62H/P40V/Q125Y/R42H/S133A/S149N/S66Y/V115G/V209L/W38E); assay type: binding
[8] = biological target: DR7 (DRB1*0701) (Homo sapiens, UniProt P01903+P01911, A100R/A102G/A103Q/D57E/D86V/E43K/F76Y/K127E/L162R/M171V/P40G/Q125H/Q99D/R33Q/R42Y/R54Q/S133A/S66F/T210M/V115G/Y107V/Y59L/Y89S); assay type: binding
[9] = biological target: DRB5*0101 (Homo sapiens, UniProt P01903+Q30154)
[10] = biological target: DR4w4 (DRB1*0401) (Homo sapiens, UniProt P01903+P01911, A100K/A169T/F76Y/I96L/K127E/L162R/M171V/N62H/P40V/Q125Y/R42H/S133A/S149N/S66Y/V115G/V209L/W38E); assay type: binding
[11] = biological target: DRB1*1101 (Homo sapiens, UniProt P01903+P01911, A100R/A169T/A87E/I96F/K41T/L162R/M171V/P40S/Q125H/Q178H/Q39Y/Q99D/R42S/S66Y/T262R/V115G/W38E)
Chain of DRB1*1101 (P01903 26-254 limits assumed, other chains not shown): as above

Molecule	IC50 [1]	IC50 [2]	IC50 [3]	IC50 [4]	IC50 [5]	IC50 [6]	IC50 [7]	IC50 [8]	IC50 ([9]; Binding affinity DRB5 *0101)	IC50 [10]	IC50 ([11]; Binding affinity DRB1 *1101)	IC50 [9]	IC50 [11]
CC[C@H](C)[C@H](NC(=O)[C@H](C)NC(=O)[C@H](CCCCN)NC(=O)[C@H](Cc1c[nH]cn1)NC(=O)[C@H](C)NC(=O)[C@H](CCCCN)NC(=O)[C@H](CO)NC(=O)[C@H](CCCCN)NC(=O)[C@H](CO)NC(=O)[C@@H](NC(=O)[C@H](CC(N)=O)NC(=O)[C@H](Cc1ccc(O)cc1)NC(=O)[C@H](C)N)[C@@H](C)CC)C(=O)N[C@@H](CCC(=O)O)C(=O)N[C@@H](CC(C)C)C(=O)O [Peptide 89.0159]	0.651 µM	> 20 µM	> 20 µM	> 20 µM	> 20 µM	> 20 µM	> 20 µM	> 20 µM	> 20 µM	> 20 µM	> 20 µM		
ALSVSKAKALQAIEL [Peptide 89.0170]	0.084 µM	1.63 µM	> 20 µM	> 20 µM	4.33 µM	> 20 µM	8.43 µM	3.21 µM	> 20 µM	0.281 µM	> 20 µM		
CSAIEVQIALESLST [Peptide 90.0018]		0.617 µM	> 20 µM	> 20 µM	12 µM	0.029 µM	3.32 µM	5.26 µM	> 20 µM	0.24 µM	> 20 µM		
DIAYKYAQLADVNSN [Peptide 89.0108]	4.73 µM	> 20 µM	> 20 µM	> 20 µM	10.6 µM	0.295 µM	2.2 µM	1.02 µM	0.15 µM	0.088 µM	12.6 µM		
DRGIIILLLIRFRCS [Peptide 89.0062]	> 20 µM	> 20 µM	0.085 µM	14.4 µM	> 20 µM	7.56 µM	7.18 µM	> 20 µM	> 20 µM	> 20 µM	8.28 µM		
DSEIAYKYAQLADSD [Peptide 89.0051]		> 20 µM	0.624 µM	1.09 µM	5.32 µM	1.34 µM	12.2 µM	> 20 µM	> 20 µM	> 20 µM	3.38 µM		
DSEIAYKYAQLADTN [Peptide 89.0012]	0.734 µM	> 20 µM	1.12 µM	3.44 µM	1.93 µM	0.275 µM	11 µM	> 20 µM	19.6 µM	1.95 µM	3.54 µM		
DSQIAFQYAQLADVD [Peptide 89.0130]	> 20 µM	> 20 µM	> 20 µM	> 20 µM	> 20 µM	0.014 µM	9.99 µM	> 20 µM		3 µM		17.1 µM	> 20 µM
EVHVGGQVIVCPASV [Peptide 90.0015]	4.09 µM	0.152 µM	> 20 µM	> 20 µM	2.6 µM	0.389 µM	6.78 µM	0.187 µM	> 20 µM	2.1 µM	> 20 µM		
EVHVGGQVIVCPTSI [Peptide 89.0184]	> 20 µM	> 20 µM	> 20 µM	> 20 µM	> 20 µM	> 20 µM	0.557 µM	> 20 µM	> 20 µM	> 20 µM	> 20 µM		
FQVIELQMALETLSK [Peptide 89.0182]	1.01 µM	> 20 µM	> 20 µM	14 µM	0.751 µM	> 20 µM	0.232 µM	0.183 µM		0.224 µM	2.11 µM		
GKSYFGMSLISFLQG [Peptide 89.0056]	0.17 µM	1.34 µM	6.02 µM	4.79 µM	0.512 µM	1.96 µM	1.23 µM	0.284 µM	> 20 µM	1.09 µM	0.9 µM		
GQVIVCPTSISSNQI [Peptide 89.0185]		1.33 µM	1.63 µM	3.76 µM	> 20 µM	1.75 µM	7.59 µM	> 20 µM	2.48 µM	0.091 µM	6.53 µM		
HCTLYTAVSSTWHWT [Peptide 89.0157]	2.89 µM	0.867 µM	> 20 µM	> 20 µM	> 20 µM	> 20 µM	> 20 µM	> 20 µM	> 20 µM	19 µM	> 20 µM		
IHFLKGCIISYVNSK [Peptide 89.0147]	> 20 µM	> 20 µM	> 20 µM	> 20 µM	> 20 µM	1.36 µM	> 20 µM	6.49 µM	> 20 µM	3.84 µM	> 20 µM		
KNCILIHGAPNTGKS [Peptide 89.0055]		8.91 µM	> 20 µM	1.4 µM	17 µM	0.577 µM	3.85 µM	7.3 µM	> 20 µM	> 20 µM	19.9 µM		
LKVLIKQHSIYTHLQ [Peptide 89.0142]		0.448 µM	> 20 µM	> 20 µM	> 20 µM	> 20 µM	> 20 µM	> 20 µM	> 20 µM	> 20 µM	> 20 µM		
QAELETAQALFHAQE [Peptide 89.0022]		2.78 µM	> 20 µM	> 20 µM	0.338 µM	0.072 µM	0.592 µM	3.01 µM	1.95 µM	0.122 µM	> 20 µM		
QKCFKKKGITVTVQY [Peptide 90.0026]		0.837 µM	1.33 µM	> 20 µM	0.639 µM	1.31 µM	2.91 µM	4.39 µM	> 20 µM	0.996 µM	7.82 µM		
RKTIAKALSSILNVP [Peptide 89.0123]	> 20 µM	> 20 µM	> 20 µM	> 20 µM	> 20 µM	0.746 µM	> 20 µM	> 20 µM		11.5 µM			> 20 µM
VKFLRYQQIEFVSFL [Peptide 89.0052]		0.024 µM	7.05 µM	0.535 µM	3.21 µM	0.002 µM	2.77 µM	4.59 µM	11.2 µM	1.28 µM	1.1 µM		
YFKLFLQGTPKHNCL [Peptide 89.0133]	> 20 µM	0.193 µM	> 20 µM	> 20 µM	> 20 µM	0.081 µM	6.12 µM	> 20 µM	> 20 µM	0.109 µM			
